Experimental data as given in the Deep4Chem optical property database.
Where “and” joins values, the source holds several entries; their conditions need not be identical. Equal values may be shown once. Each block holds one compound with its values, some of them ahead of it.

Test: solvent given as SMILES
[1] = in c1cc(-c2cccc(-n3c4ccccc4c4ccccc43)c2)cc(-n2c3ccccc3c3ccccc32)c1

Compound: Cc1ccc(C2=C3C=CC=[N+]3[B-](F)(F)n3cccc32)cc1
fluorescence lifetime (in C1CCCCC1): 0.34 ns
fluorescence lifetime (in CC#N): 0.196 ns
fluorescence lifetime (in CCO): 0.253 ns
fluorescence lifetime (in CCOC(C)=O): 0.237 ns
fluorescence lifetime (in CO): 0.197 ns
fluorescence lifetime (in OCC(F)(F)F): 0.323 ns

Compound: O=[N+]([O-])c1ccc2c(c1)-c1c3c(c4c([n+]1[B-](F)(F)O2)CCc1ccccc1-4)CCc1ccccc1-3
fluorescence lifetime (in ClCCl): 0.63 ns

Compound: CC1=[N+]2C(=C(c3ccc(C(=C(c4ccccc4)c4ccccc4)c4ccccc4)cc3)c3ccc(/C=C/c4ccc(C(=C(c5ccccc5)c5ccccc5)c5ccccc5)cc4)n3[B-]2(F)F)C=C1
fluorescence lifetime (in C1CCOC1): 3.5 ns

Compound: CCCCCCCCN1c2ccccc2Sc2cc(/C=C/c3ccc(N(c4ccc(/C=C/c5ccc6c(c5)Sc5ccccc5N6CCCCCCCC)cc4)c4ccc(/C=C/c5ccc(/C=C/c6ccc(N(c7ccc(/C=C/c8ccc9c(c8)Sc8ccccc8N9CCCCCCCC)cc7)c7ccc(/C=C/c8ccc9c(c8)Sc8ccccc8N9CCCCCCCC)cc7)cc6)c6nsnc56)cc4)cc3)ccc21
fluorescence lifetime (in C1CCOC1): 1.45 ns
fluorescence lifetime (in CCOC(C)=O): 1.83 ns
fluorescence lifetime (in Cc1ccccc1): 3.53 ns
fluorescence lifetime (in ClC(Cl)Cl): 2.25 ns
fluorescence lifetime (in ClCCl): 2 ns

Compound: CC(C)(C)c1ccc(N(c2ccccc2)c2ccc3ccc4c(N(c5ccccc5)c5ccc(C(C)(C)C)cc5)ccc5ccc2c3c54)cc1
fluorescence lifetime (in ClCCl): 6.2 ns

Compound: N#Cc1cc(N2c3ccccc3Sc3ccccc32)cc(N2c3ccccc3Sc3ccccc32)c1
fluorescence lifetime (in Cc1ccccc1): 22.6 ns

Compound: COc1cc2cc(C#Cc3ccc(/C=C(\C#N)C(=O)O)cc3)c(=O)oc2cc1OC
fluorescence lifetime (in CC#N): 1.16 ns

Compound: CN(C)c1ccc2nc(-c3ccc(/C=N/c4ccccc4)cc3)sc2c1
fluorescence lifetime (in C1CCCCC1): 2.2 ns

Compound: CC1=C(Br)C(C)=[N+]2C1=C(c1c(-c3ccccn3)nc3ccccn13)c1c(C)c(Br)c(C)n1[B-]2(F)F
fluorescence lifetime (in ClCCl): 0.9 ns

Compound: Cc1cc(C)c2c(c1)c1cc(C)cc(C)c1n2-c1ccc2c(c1)B(c1c(C(C)C)cc(C(C)C)cc1C(C)C)c1cc(-n3c4c(C)cc(C)cc4c4cc(C)cc(C)c43)ccc1N2c1ccccc1
fluorescence lifetime [1]: 9 ns

Compound: C(=C\c1ccc(N(c2ccccc2)c2ccccc2)cc1)/c1ccc(/C=C/c2ccc(N(c3ccccc3)c3ccccc3)cc2)cc1
fluorescence lifetime (in C1CCOC1): 1.25 ns
fluorescence lifetime (in CS(C)=O): 1.53 ns
fluorescence lifetime (in Cc1ccccc1): 0.99 ns

Compound: c1ccc(N2c3ccc4ccccc4c3-c3c4ccccc4nc[n+]3[B-]2(c2ccccc2)c2ccccc2)cc1
fluorescence lifetime (in C1CCC2CCCCC2C1): 3.42 ns
fluorescence lifetime (in C1CCCCC1): 3.43 ns
fluorescence lifetime (in C1CCOC1): 0.54 ns
fluorescence lifetime (in CC#N): 0.21 ns
fluorescence lifetime (in CC(C)=O): 0.21 ns
fluorescence lifetime (in CCCCCC): 3.4 ns
fluorescence lifetime (in CCOC(C)=O): 0.57 ns
fluorescence lifetime (in Cc1ccccc1): 1.56 ns
fluorescence lifetime (in ClC(Cl)Cl): 0.49 ns

Compound: CC1=[N+]2C(=C(c3ccccc3)c3ccc(C)n3[B-]2(F)F)C=C1
fluorescence lifetime (in C1CCCCC1): 1.94 ns
fluorescence lifetime (in CC#N): 1.33 ns
fluorescence lifetime (in CCOC(C)=O): 1.71 ns
fluorescence lifetime (in CO): 1.46 ns
fluorescence lifetime (in Cc1ccccc1): 2.65 ns
fluorescence lifetime (in ClC(Cl)Cl): 2.65 ns

Compound: O=S(=O)(c1ccc(N2c3ccccc3N(c3ccccc3)c3ccccc32)cc1)c1ccc(N2c3ccccc3N(c3ccccc3)c3ccccc32)cc1
fluorescence lifetime (in Cc1ccccc1): 5.6 ns
fluorescence lifetime (in c1cc(-n2c3ccccc3c3ccccc32)cc(-n2c3ccccc3c3ccccc32)c1): 10 ns

Compound: CC1(C)C(/C=C/C2=C(c3ccc(C(=O)O)cc3)C(=C/C=C3/N(CCCCS(=O)(=O)[O-])c4ccc(S(=O)(=O)[O-])cc4C3(C)C)/CCC2)=[N+](CCCCS(=O)(=O)[O-])c2ccc(S(=O)(=O)[O-])cc21
fluorescence lifetime (in CC(C)=O): 1.02 ns
fluorescence lifetime (in CCO): 1 ns
fluorescence lifetime (in CO): 0.81 ns
fluorescence lifetime (in CS(C)=O): 1.33 ns
fluorescence lifetime (in O): 0.44 ns

Compound: CCCCCCC(CCCCCC)N1C(=O)c2cccc3c(-c4cc(OC)c(OC)c(OC)c4)ccc(c23)C1=O
fluorescence lifetime (in CCCCCC): 2.03 ns
fluorescence lifetime (in CCCCCCCCCCCCCC): 2.78 ns
fluorescence lifetime (in CCCCCCCCCCCO): 1.75 ns
fluorescence lifetime (in CCCCO): 0.208 ns
fluorescence lifetime (in CN(C)C=O): 0.119 ns
fluorescence lifetime (in Cc1ccccc1): 5.4 ns
fluorescence lifetime (in ClC(Cl)Cl): 6.62 ns

Compound: Cc1cc(=O)oc2c3c4c(cc12)CCCN4CCC3
fluorescence lifetime (in C1CCCCC1): 2.6 ns
fluorescence lifetime (in CC#N): 3.3 ns
fluorescence lifetime (in CCC#N): 4.26 ns
fluorescence lifetime (in CCCCl): 3.75 ns
fluorescence lifetime (in CCO): 4.5 ns and 4.54 ns
fluorescence lifetime (in O): 5.9 ns
fluorescence lifetime (in OC(C(F)(F)F)C(F)(F)F): 6.88 ns
fluorescence lifetime (in OCC(F)(F)F): 6.36 ns

Compound: COc1ccc2cc(C#Cc3ccc([N+](=O)[O-])cc3)ccc2c1
fluorescence lifetime (in C1CCOC1): 0.57 ns
fluorescence lifetime (in ClC(Cl)Cl): 0.77 ns
fluorescence lifetime (in ClCCl): 0.32 ns

Compound: COc1ccc(/C=C/C=C/C=C/c2ccc([N+](=O)[O-])cc2)cc1
fluorescence lifetime (in C1CCOC1): 1.7 ns
fluorescence lifetime (in C1COCCO1): 1.9 ns
fluorescence lifetime (in CC1CCCCC1): 0.7 ns
fluorescence lifetime (in Cc1ccccc1): 1.5 ns

Compound: CC(C)(C)c1ccc2c(c1)B1c3cc(C(C)(C)C)ccc3Oc3cc(N4c5ccccc5C(C)(C)c5ccccc54)cc(c31)O2
fluorescence lifetime (in Cc1ccccc1): 6.6 ns

Compound: COc1ccc(C2=C3C=CC(C)=[N+]3[B-](F)(F)n3c(C)ccc32)cc1
fluorescence lifetime (in C1CCCCC1): 2.87 ns
fluorescence lifetime (in CC#N): 1.6 ns
fluorescence lifetime (in CCOC(C)=O): 2.24 ns
fluorescence lifetime (in CO): 1.87 ns
fluorescence lifetime (in Cc1ccccc1): 3.35 ns
fluorescence lifetime (in ClC(Cl)Cl): 3.28 ns

Compound: N#Cc1c(-n2c3ccccc3c3ccccc32)c(-n2c3ccc(-c4ccccc4)cc3c3cc(-c4ccccc4)ccc32)c(-n2c3ccccc3c3ccccc32)c(-n2c3ccc(-c4ccccc4)cc3c3cc(-c4ccccc4)ccc32)c1-n1c2ccccc2c2ccccc21
fluorescence lifetime (in Cc1ccccc1): 5.8 ns
fluorescence lifetime [1]: 4.5 ns

Compound: F[B-]1(F)n2c(/C=C/c3ccc(C(=C(c4ccccc4)c4ccccc4)c4ccccc4)cc3)ccc2C(c2ccc(C(=C(c3ccccc3)c3ccccc3)c3ccccc3)cc2)=C2C=CC(/C=C/c3ccc(C(=C(c4ccccc4)c4ccccc4)c4ccccc4)cc3)=[N+]21
fluorescence lifetime (in C1CCOC1): 3.89 ns

Compound: c1ccc(-c2nc3c(c4c2-c2ccccc2CC4)-c2ccccc2CC3)cc1
fluorescence lifetime (in CC#N): 1.39 ns
fluorescence lifetime (in CCCCCC): 0.26 ns
fluorescence lifetime (in CO): 0.29 ns
fluorescence lifetime (in CS(C)=O): 0.51 ns

Compound: FC(F)(F)c1ccc(-c2nnc(-c3cc(-c4nnc(-c5ccc(C(F)(F)F)cc5)o4)c(-n4c5ccccc5c5ccccc54)cc3-n3c4ccccc4c4ccccc43)o2)cc1
fluorescence lifetime (in Cc1ccccc1): 5.1 ns
fluorescence lifetime (in O=P(c1ccccc1)(c1ccccc1)c1ccccc1Oc1ccccc1P(=O)(c1ccccc1)c1ccccc1): 8.6 ns

Compound: CCCC1(CCC)c2cc(C=C(C#Cc3ccccc3)C#Cc3ccccc3)ccc2-c2ccc(C=C(C#Cc3ccccc3)C#Cc3ccccc3)cc21
fluorescence lifetime (in ClC(Cl)Cl): 0.6 ns

Compound: CCOc1cccc(-c2nc3c(c4c2-c2ccccc2CC4)-c2ccccc2CC3)c1O
fluorescence lifetime (in ClCCl): 0.65 ns

Compound: CC1(C)C(=O)C=Cc2ccc(O)cc21
fluorescence lifetime (in O): 2.45 ns

Compound: C[Si]1(C)c2ccc(-c3cccs3)cc2C=Cc2cc(-c3cccs3)ccc21
fluorescence lifetime (in ClCCl): 2 ns

Compound: Brc1c(Br)c2ccc3c(Br)c(Br)c4ccc5ccc1c1c5c4c3c21
fluorescence lifetime (in C1CCCCC1): 0.058 ns

Compound: CCC12C(=C3C(=C4c5ccc(-c6ccc(CO)cc6)cc5S(=O)(=O)C41CC)C(F)(F)C(F)(F)C3(F)F)c1ccc(-c3ccc(CO)cc3)cc1S2(=O)=O (stereo not drawn)
fluorescence lifetime (in C1COCCO1): 2.9 ns

Compound: N#Cc1ccc2cc[nH]c2c1
fluorescence lifetime (in C1CCOC1): 3.7 ns
fluorescence lifetime (in C1COCCO1): 3.9 ns
fluorescence lifetime (in CC#N): 3.8 ns
fluorescence lifetime (in CC(C)O): 3.7 ns
fluorescence lifetime (in CCO): 3.7 ns
fluorescence lifetime (in CO): 3.5 ns
fluorescence lifetime (in CS(C)=O): 4.3 ns
fluorescence lifetime (in NC=O): 4.2 ns
fluorescence lifetime (in O): 0.6 ns
fluorescence lifetime (in OCC(F)(F)F): 0.8 ns
fluorescence lifetime (in [2H]OC([2H])([2H])C(F)(F)F): 1.1 ns
fluorescence lifetime (in [2H]O[2H]): 0.8 ns

Compound: CC(C)(C)c1ccc2c(c1)c1cc(C(C)(C)C)ccc1n2-c1cc(C(=O)c2ccccn2)cc(-n2c3ccc(C(C)(C)C)cc3c3cc(C(C)(C)C)ccc32)c1
fluorescence lifetime [1]: 5.3 ns

Next, values leading:

fluorescence lifetime (in ClCCl): 1.76 ns
Compound: CCCCn1c(-c2ccc(-c3nnc(-c4ccccc4)o3)cc2)nc(-c2ccccc2)c1-c1ccccc1

fluorescence lifetime (in ClC(Cl)Cl): 11.4 ns
Compound: CCCCCCN1C(=O)c2cccc3cc(/N=C\c4cn(C)c5ccccc45)cc(c23)C1=O

fluorescence lifetime (in ClCCl): 6.3 ns
Compound: CCCCCCCCCCCCN1C(=O)c2c(c3ccc4cc(-c5ccc(C#N)cc5)c(OC)cc4c3c3c2ccc2cc(-c4ccc(C#N)cc4)c(OC)cc23)C1=O

fluorescence lifetime (in ClCCl): 2.48 ns
Compound: CCN(CC)c1ccc2c(c1)oc(=O)c1cnc3c(cnn3-c3ccccc3)c12

fluorescence lifetime (in ClC(Cl)Cl): 3.51 ns
Compound: CCCCCCN1C(=O)c2cccc3c(-c4scc5c4OCCO5)ccc(c23)C1=O

fluorescence lifetime (in ClC(Cl)Cl): 1.32 ns
Compound: CCCCCCc1cc(-c2ccc3c(c2)C2CCCC2N3c2ccc3c(c2)C(C)(C)c2ccccc2-3)sc1/C=C1\C(=O)c2ccc(C(=O)O)cc2C1=O (stereo not drawn)

fluorescence lifetime (in ClC(Cl)Cl): 3.84 ns
Compound: CCCCCCN1C(=O)c2cccc3cc(/N=C\c4ccc(N5CCOCC5)cc4)cc(c23)C1=O

fluorescence lifetime (in ClCCl): 11.1 ns
Compound: CC[B-]1(CC)c2cccc3c4c5c(cccc5c(c23)-c2cccc(C)[n+]21)[B-](CC)(CC)[n+]1c(C)cccc1-4

fluorescence lifetime (in ClCCl): 2.28 ns
Compound: CCCCC(CC)COc1ccc2nc(-c3ccc(-c4ccc(N(C)C)cc4)s3)sc2c1 (stereo not drawn)

fluorescence lifetime (in ClC(Cl)Cl): 3.1 ns
Compound: CCCCCCn1c2ccccc2c2cc3c4cc5c6ccccc6n(CCCCCC)c5cc4c4cc5c(C)cc(=O)oc5cc4c3cc21

fluorescence lifetime (in CC#N): 0.07 ns
fluorescence lifetime (in CC(C)O): 1.3 ns
fluorescence lifetime (in CCO): 1.7 ns
fluorescence lifetime (in CO): 2.55 ns
fluorescence lifetime (in OCCO): 4.6 ns
Compound: Cc1ccc2sc3cc(CCC(=O)O)ccc3c(=O)c2c1

fluorescence lifetime (in CC#N): 2.41 ns
fluorescence lifetime (in CO): 2.38 ns
fluorescence lifetime (in O): 2.56 ns
Compound: CNCCCC1c2ccccc2C=Cc2ccccc21

fluorescence lifetime (in C1CCCCC1): 4.12 ns
fluorescence lifetime (in CCOC(C)=O): 3.81 ns
fluorescence lifetime (in CO): 1.67 ns
Compound: CCCCCCOc1ccc2oc3c(c2c1)=CC1=C(c2ccccc2C)c2cc4c5cc(OCCCCCC)ccc5oc4n2[B-](F)(F)[N+]=31

fluorescence lifetime (in ClC(Cl)Cl): 1.92 ns
Compound: CCCCCCN1C(=O)c2cccc3c(-c4cccs4)ccc(c23)C1=O

fluorescence lifetime (in CS(C)=O): 7.96 ns
Compound: CCCCCCCCn1c2ccccc2c(=O)c2ccccc21

fluorescence lifetime (in CC#N): 1.61 ns
fluorescence lifetime (in CCO): 2.92 ns
fluorescence lifetime (in CN(C)C=O): 1.92 ns
fluorescence lifetime (in O): 1.67 ns
Compound: CCCCOC(=O)c1ccccc1-c1c2ccc(=[N+](CC)CC)cc-2oc2cc(N(CC)CC)ccc12
